IC50 data for 17 compounds are collected here from patent publication US11292799B2, “Substituted azetidine dihydrothienopyrimidines and their use as phosphodiesterase inhibitors” (UNION therapeutics A/S, priority 2017, dated 2022).

SMILES strings stand for the structures.

Test [1] concerns TNF-α release, human peripheral blood mononuclear cells (PBMC). In words: TNF-α release in LPS-stimulated PBMC. It is filed as cell-based. Particulars: lipopolysaccharide stimulation for 18 hours, read-out: TNF-α IC50 range. The procedure: Human peripheral blood mononuclear cells (PBMC) were isolated from buffy coats. The blood is mixed with saline at a ratio of 1:1, and the PBMC were isolated using Lymphoprep Tubes™ (Nycomed, Norway). The PBMC were suspended in RPMI1640 with 0.5% human serum albumin, pen/strep and 2 mM L-glutamine at a concentration of 5×105 c/ml. The cells were pre-incubated for 30 minutes with the test compounds in 96 well tissue culture plates and stimulated for 18 hours with lipopolysaccharide […] (Sigma). TNF-α concentration in the supernatants was measured using homogeneous time-resolved fluorescence resonance (TR-FRET). The assay is quantified by measuring fluorescence at 665 nm (proportional to TNF-α concentration) and 620 nm (control).
Results were expressed as IC50 values calculated from inhibition curves using as positive controls the secretion in LPS stimulated wells and as negative controls the secretion in unstimulated cells.

The target in test [2] is human PDE4D catalytic domain (Homo sapiens (Human), UniProt Q08499). In words: PDE4 assay (TR-FRET, cAMP cleavage). The format is biochemical. Particulars: read-out: PDE4 IC50 range. The protocol:
The human PDE4D catalytic domain (UniProt no. Q08499 [[…]]) was incubated with a mixture of non-labelled cAMP (cyclic adenosine monophosphate) and fluorescein amidite (FAM) conjugated cAMP and titrated test or reference compound. Following brief incubation the enzymatic reaction was stopped by addition of binding buffer containing nanoparticles with immobilized trivalent metal ions capable of binding 1) AMP phospho groups and 2) terbium (Tb) donor fluorophores. Subsequent excitation of the Tb donor triggers time-resolved FRET to adjacent FAM acceptor molecules resulting in light emission. In the presence of a PDE4 inhibitor, AMP generation was reduced resulting in a lower fluorescence signal. The cAMP phosphodiester is not bound by the detection system.
The results were calculated as the molar concentrations resulting in 50% inhibition of the substrate cleavage compared to controls samples, and are expressed as IC50 (nM).
Background: TR-FRET usually uses a lanthanide donor and a delayed reading to cut background.

Chain of human PDE4D catalytic domain (Q08499 380-740 limits assumed): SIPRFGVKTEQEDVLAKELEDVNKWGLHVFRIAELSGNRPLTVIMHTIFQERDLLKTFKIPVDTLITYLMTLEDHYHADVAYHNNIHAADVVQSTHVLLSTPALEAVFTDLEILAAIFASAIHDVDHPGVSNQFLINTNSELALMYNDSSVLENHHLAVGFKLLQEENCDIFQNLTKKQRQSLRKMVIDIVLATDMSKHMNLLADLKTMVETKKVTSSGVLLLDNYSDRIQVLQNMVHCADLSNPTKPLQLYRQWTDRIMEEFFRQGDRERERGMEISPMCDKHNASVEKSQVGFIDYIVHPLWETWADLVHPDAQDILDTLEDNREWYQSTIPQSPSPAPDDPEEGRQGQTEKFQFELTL

For orientation: IC50 means the concentration that gives 50% inhibition. Regarding `[O-][S+]1CCc2nc(N3CC(c4ccccc4)C3)nc(NC34CC(C3)C4)c21` (stereo in doubt) [Example 11, (R)-4-(Bicyclo[1.1.1]pentan-1-ylamino)-2-(3-phenylazetidin-1-yl)-6,7-dihydrothieno[3,2-d]pyrimidine 5-oxide], the IC50 in test [1] and in test [2] was less than 10 nM throughout.

Take `[O-][S+]1CCc2nc(N3CC(c4ccc(F)cc4)C3)nc(NC34CC(C3)C4)c21` (stereo in doubt) [Example 9, (R)-4-(Bicyclo[1.1.1]pentan-1-ylamino)-2-(3-(4-fluorophenyl)azetidin-1-yl)-6,7-dihydrothieno[3,2-d]pyrimidine 5-oxide]: the concentration for half-maximal inhibition (IC50) in test [1] and in test [2] was less than 10 nM each time.

For the compound `[O-][S+]1CCc2nc(N3CC(Oc4ccccc4)C3)nc(NC3CCOCC3)c21` (stereo in doubt) [Example 2, (R)-2-(3-Phenoxyazetidin-1-yl)-4-((tetrahydro-2H-pyran-4-yl)amino)-6,7-dihydrothieno[3,2-d]pyrimidine 5-oxide], the IC50 in test [1] and in test [2] was less than 10 nM throughout.

As for `O=S1(=O)CC(Nc2nc(N3CC(c4ccccc4)C3)nc3c2[S@+]([O-])CC3)C1` [Example 4, (R)-3-((5-Oxido-2-(3-phenylazetidin-1-yl)-6,7-dihydrothieno[3,2-d]pyrimidin-4-yl)amino)thietane 1,1-dioxide], the concentration for half-maximal inhibition (IC50) in test [1] fell in the range of 10 to 50 nM.

In the case of `[O-][S+]1CCc2nc(N3CC(Oc4ccc(F)cc4)C3)nc(NC3CCOCC3)c21` (stereo in doubt) [Example 3, (R)-2-(3-(4-Fluorophenoxy)azetidin-1-yl)-4-((tetrahydro-2H-pyran-4-yl)amino)-6,7-dihydrothieno[3,2-d]pyrimidine 5-oxide], the IC50 in test [1] and in test [2] was less than 10 nM each time.

In the case of `[O-][S+]1CCc2nc(N3CC(c4cccc(F)c4)C3)nc(NC34CC(C3)C4)c21` (stereo in doubt) [Example 13, (R)-4-(Bicyclo[1.1.1]pentan-1-ylamino)-2-(3-(3-fluorophenyl)azetidin-1-yl)-6,7-dihydrothieno[3,2-d]pyrimidine 5-oxide], the IC50 in test [1] and in test [2] was less than 10 nM in each case.

Take `[O-][S+]1CCc2nc(N3CC(c4ccccn4)C3)nc(NC34CC(C3)C4)c21` (stereo in doubt) [Example 12, (R)-4-(Bicyclo[1.1.1]pentan-1-ylamino)-2-(3-(pyridin-2-yl)azetidin-1-yl)-6,7-dihydrothieno[3,2-d]pyrimidine 5-oxide]: the IC50 in test [1] and in test [2] was 10 to 50 nM each time.

Take `COC(=O)N1CC[C@@H](Nc2nc(N3CC(c4ccccc4)C3)nc3c2[S@+]([O-])CC3)C1` [Example 6, Methyl (3R)-3-(((5R)-5-Oxido-2-(3-phenylazetidin-1-yl)-6,7-dihydrothieno[3,2-d]pyrimidin-4-yl)amino)pyrrolidine-1-carboxylate]: the IC50 in test [1] and in test [2] was less than 10 nM throughout.

For the compound `COC(=O)N1CC[C@H](Nc2nc(N3CC(c4ccccc4)C3)nc3c2[S@+]([O-])CC3)C1` [Example 5, Methyl (3S)-3-(((5R)-5-oxido-2-(3-phenylazetidin-1-yl)-6,7-dihydrothieno[3,2-d]pyrimidin-4-yl)amino)pyrrolidine-1-carboxylate], the IC50 in test [1] and in test [2] was 10 to 50 nM in each case.

With `[O-][S+]1CCc2nc(N3CC(Oc4cccnc4)C3)nc(NC34CC(C3)C4)c21` (stereo in doubt) [Example 14, (R)-4-(Bicyclo[1.1.1]pentan-1-ylamino)-2-(3-(pyridin-3-yloxy)azetidin-1-yl)-6,7-dihydrothieno[3,2-d]pyrimidine 5-oxide], the concentration for half-maximal inhibition (IC50) in test [1] is 10 to 50 nM; in test [2], less than 10 nM.

For `O=S1(=O)CCC(Nc2nc(N3CC(c4ccccc4)C3)nc3c2[S+]([O-])CC3)CC1` (stereo in doubt) [Example 17, (5R)—N-(1,1-Dioxothian-4-yl)-5-oxido-2-(3-phenylazetidin-1-yl)-6,7-dihydrothieno[3,2-d]pyrimidin-4-yl-amine], the IC50 in test [1] was less than 10 nM.

For `[O-][S+]1CCc2nc(N3CC(Oc4ccc(F)cc4)C3)nc(NC34CC(C3)C4)c21` (stereo in doubt) [Example 10, (R)-4-(Bicyclo[1.1.1]pentan-1-ylamino)-2-(3-(4-fluorophenoxy)azetidin-1-yl)-6,7-dihydrothieno[3,2-d]pyrimidine 5-oxide], the 50% inhibitory concentration (IC50) in test [1] and in test [2] was less than 10 nM each time.

Turning to `[O-][S+]1CCc2nc(N3CC(c4ccccc4)C3)nc(NC3CCOCC3)c21` (stereo in doubt) [Example 1, (R)-2-(3-Phenylazetidin-1-yl)-4-((tetrahydro-2H-pyran-4-yl)amino)-6,7-dihydrothieno[3,2-d]pyrimidine 5-oxide], the IC50 in test [1] and in test [2] was less than 10 nM throughout.

Take `COC(=O)N1CCC[C@H](Nc2nc(N3CC(Oc4ccc(F)cc4)C3)nc3c2[S@+]([O-])CC3)C1` [Example 8, Methyl (3S)-3-(((5R)-2-(3-(4-Fluorophenoxy)azetidin-1-yl)-5-oxido-6,7-dihydrothieno[3,2-d]pyrimidin-4-yl)amino)piperidine-1-carboxylate]: the IC50 in test [1] and in test [2] was less than 10 nM throughout.

Take `CC1(Nc2nc(N3CC(c4cccnc4)C3)nc3c2[S@+]([O-])CC3)CCC1` [Example 16, (R)-4-((1-Methylcyclobutyl)amino)-2-(3-(pyridin-3-yl)azetidin-1-yl)-6,7-dihydrothieno[3,2-d]pyrimidine 5-oxide]: the 50% inhibitory concentration (IC50) in test [1] and in test [2] was 10 to 50 nM in each case.

On to `COC(=O)N1CCC[C@@H](Nc2nc(N3CC(Oc4ccc(F)cc4)C3)nc3c2[S@+]([O-])CC3)C1` [Example 7, Methyl (3R)-3-(((5R)-2-(3-(4-Fluorophenoxy)azetidin-1-yl)-5-oxido-6,7-dihydrothieno[3,2-d]pyrimidin-4-yl)amino)piperidine-1-carboxylate], for which the IC50 in test [1] and in test [2] was less than 10 nM throughout.

With `CC1(Nc2nc(N3CC(c4ccccn4)C3)nc3c2[S@+]([O-])CC3)CCC1` [Example 15, (R)-4-((1-Methylcyclobutyl)amino)-2-(3-(pyridin-2-yl)azetidin-1-yl)-6,7-dihydrothieno[3,2-d]pyrimidine 5-oxide], the IC50 in test [1] and in test [2] was less than 10 nM throughout.
